Assay results from paper PMC4279419, “Angiostatic, tumor inflammatory and anti-tumor effects of CXCL4^47–70 and CXCL4L1^47–70 in an EGF-dependent breast cancer model” (Oncotarget, 2014).
Where no end group is shown, it is not given here.

Legend:
[1] = test system: MDA-MB-231 breast tumors in SCID mice; test: MDA-MB-231 tumor growth in SCID mice; type: in vivo; details: 2.5 μg intratumoral 3×/week from day 3, mean ± s.e.m., n=10; for tumor volume (external), day 11 / mean tumor volume (external), day 25: calipers; for tumor volume (external), day 11: vehicle 176 ± 56, p<0.001 (CXCL4^47–70), p=0.007 (CXCL4L1^47–70); for mean tumor volume (external), day 25: vehicle 1116 ± 149, p=0.121 (CXCL4L1^47–70); for mean tumor volume (external), day 25 / resected tumor mass, day 27 or 28: p=0.002 (CXCL4^47–70); for resected tumor volume, day 27 or 28: vehicle 845 ± 177, p=0.001 (CXCL4^47–70), p=0.256 (CXCL4L1^47–70); for resected tumor mass, day 27 or 28: vehicle 1464 ± 277, p=0.091 (CXCL4L1^47–70)
Method: SCID mice were bred in specific-pathogen-free conditions in the Experimental Animal Breeding Facility of the University of Leuven (KU Leuven) and fed sterilized food and water. All animal experiments were conducted in agreement with the Ethical Committee for Animal Care and Use of the KU Leuven and executed under license number LA1210243. 7- to 10-week-old SCID mice were used throughout the experiments. MDA-MB-231 cells in log growth phase (6 × 10^6 cells resuspended in 200 μl of PBS) were injected subcutaneously (s.c.) on day 0 in the right dorsal flank. Animals were treated by intratumoral injection with control, 2.5 μg synthetic human CXCL4^47–70 peptide or synthetic human CXCL4L1^47–70 peptide three times a week starting from day 3. The external tumor volume was measured with calipers thrice a week and calculated using the formula (4πab2)/3 in which a and b are the largest and smallest radius, respectively. On day 27 or 28, mice were sacrificed and tumors were resected. The exact tumor volume of the resected tumor, based on three measured radii (a, b and c), was calculated by the formula (4πabc)/3. A portion of the tumors was stored at −70°C for generation of mRNA extracts and another part was processed for flow cytometry.

[2] = test system: F4/80^+ cells in MDA-MB-231 tumors; test: Flow cytometry of intratumoral F4/80^+ cells; type: in vivo, mice; details: 2.5 μg intratumoral 3×/week; n=9; control 6.85 ± 1.18% (n=10)
Method: For flow cytometry, single cell suspensions were prepared from tumor biopsies using a MACS dissociator (Myltenyi Biotec, Bergisch Gladbach, Germany) and a mixture of collagenase A and dispase. Remaining cell clumps were removed by passing the cell suspension through a nylon cell strainer (70 μm mesh). Remaining red blood cells were lysed in ACK lysis buffer (0.15 M NH4Cl, 0.1 mM Na2EDTA, 10 mM KHCO3; pH = 7.2). Subsequently monocytes were identified by flow cytometry using specific antibodies, namely rat anti-mouse F4/80-PE antibody (eBiosciences, San Diego, CA).

CXCR3A = test: Calcium signaling in CXCR3A-transfectants; type: cell-based; details: CHO/CXCR3A, one representative experiment out of three; for calcium signal via CXCR3A: 2 μg/ml, fura 2, spectrofluorometer; for inhibition of CXCL10-induced calcium signaling (desensitization): peptide 2 μg/ml, CXCL10 5 ng/ml added 100 s later, fura 2
Excerpt: We further tried to reveal the mode of action of CXCL4^47–70 and CXCL4L1^47–70. First, we excluded that either peptide still binds/activates one of the CXCR3 isoforms, the receptors for intact CXCL4 and CXCL4L1. […]
inhibit signaling by intact CXCL10. To study interaction of CXCL447–70 and CXCL4L147–70 with CXCR3A, CHO cells stably transfected with CXCR3A were loaded with the fluorescent dye fura 2 (Struyf et al. J. Immunol. 2009, 182:666). Changes in the intracellular Ca2+ concentrations ([Ca2+]i) in response to CXCL447–70 or CXCL4L147–70 treatment were monitored using a spectrofluorometer. The line in the spectra indicates the fluorescence intensity ratio (i.e. the fluorescence intensity measured after excitation at 340 nm divided by the fluorescence intensity measured after excitation at 380 nm). The results shown (one representative experiment out of three) illustrate a desensitization experiment, in which CHO/CXCR3A cells were stimulated first with a peptide (2 µg/ml) and 100 s later with intact CXCL10 […]
peptides induced a rise in [Ca2+]i. When the cells were stimulated with 5 ng/ml intact CXCL10 100 s after peptide treatment, the response […]
interact with CXCR3A. Arrows indicate the time of addition of the stimulus.
(also on this page, place not known: www.impactjournals.com/oncotarget/ Oncotarget, Supplementary Materials 2014 CXCL4 47–70 CXCL4L1 47–70 CXCL4 47–70 CXCL4L1 47–70 CXCL4 47–70) […]

CCL5 = CCL5 binding (heterodimerization) assay in 96-well plates; design: species or system human; details: biotinylated peptides; 37 °C; 50 ng/ml CCL5 coated; OD450; n=3
Method: GAG, EGF and CCL5 binding were quantified in 96-well plates following a similar protocol. GAG binding was evaluated by immobilizing low molecular weight heparin (Iduron, Manchester, UK) on EpranEx plates (BD Biosciences), whereas EGF as well as CCL5 recombinant human protein (R&D Systems and PeproTech, respectively) was immobilized on high protein-binding ELISA plates (Corning life sciences, Tewksbury, MA). In brief, 25 μg/ml GAG [diluted in assay buffer 100 mM NaCl, 50 mM NaAc, pH 7.2, and 0.2% (v/v) Tween-20], 2 μg/ml EGF or 50 ng/ml CCL5 (both diluted in PBS), was coated overnight at room temperature on 96-well plates. Plates were washed three times with either assay buffer or 0.5% (v/v) Tween 20 in PBS and blocked at 37°C with buffer enriched with either 0.2% (w/v) gelatin (heparin binding assay) or 0.1% (w/v) casein (EGF or CCL5 binding assay). Subsequently, a dilution curve of biotinylated CXCL4L1^47–70 and CXCL4^47–70 peptide was pipetted on the plate and incubated at 37 °C to allow interaction with heparin, EGF or CCL5. After washing, retained biotinylated peptide was detected by peroxidase-conjugated streptavidin. Peroxidase activity was quantified by measuring the conversion of 3,3′,5,5′-tetramethylbenzidine (Sigma-Aldrich) at 450 nm.

muCCL5 = test: qPCR stromal CCL5 mRNA; type: in vivo, murine; details: 2.5 μg intratumoral 3×/week; 2^−ΔΔCT; p=0.020, n=7
Method: The RNeasy Mini Kit (QIAGEN, Venlo, the Netherlands) was used for tumor mRNA extraction. The extracted mRNA was then converted to cDNA making use of the High Capacity cDNA Reverse Transcription Kit (Applied Biosystems, Foster City, CA). Quantitative polymerase chain reactions (qPCR) based on the TaqMan principle were conducted to compare gene expression between samples. Primers and probes (Table 2; Integrated DNA Technologies, Haasrode, Belgium), were diluted to the prescribed working concentrations in RNase-free water and added to the reaction mix in a MicroAmp® fast optical 96-well reaction plate (Applied Biosystems), together with 50 ng sample cDNA per reaction. The actual thermocycler program consisted of 2 minutes on 50 °C, 10 minutes on 95 °C and 40 cycles of 15 seconds on 95 °C followed by 1 minute on 60 °C. Analysis of the obtained CT was based on the 2^−ΔΔC^T method, opting for 18S ribosomal 1 RNA as an internal control.

Substance | tumor volume (external), day 11 [1] | mean tumor volume (external), day 25 [1] | resected tumor volume, day 27 or 28 [1] | resected tumor mass, day 27 or 28 [1] | intratumoral F4/80^+ cells [2] | calcium signal via CXCR3A (CXCR3A) | calcium signal via CXCR3A (CXCR3A; listed as CXCL4L147–70) | inhibition of CXCL10-induced calcium signaling (desensitization) (CXCR3A) | inhibition of CXCL10-induced calcium signaling (desensitization) (CXCR3A; listed as CXCL4L147–70) | binding to CCL5-coated plate (CCL5) | stromal CCL5 expression versus vehicle (muCCL5) | calcium signal via CXCR3A (CXCR3A; listed as CXCL447–70) | inhibition of CXCL10-induced calcium signaling (desensitization) (CXCR3A; listed as CXCL447–70)
CXCL4L1^47–70: synthetic human carboxy-terminal peptide restricted to the last 24 amino acids of CXCL4L1, Fmoc chemistry | 61 ± 23 mm^3 | 719 ± 153 mm^3 | 647 ± 161 mm^3 | 953 ± 208 mg | 7.74 ± 1.35% | Nor could we detect any calcium signal | do not induce calcium signaling via CXCR3A | neither peptide (2 μg/ml) was capable of inhibiting calcium signaling | equal to the signal obtained after buffer stimulation | directly and equally well interacted with CCL5 | – | – | –
CXCL4^47–70: synthetic human carboxy-terminal peptide restricted to the last 24 amino acids of CXCL4, Fmoc chemistry (NGRKICLDLQAPLYKKIIKKLLES; not fully specified (N-terminus)) | 24 ± 6 mm^3 | 438 ± 97 mm^3 | 308 ± 61 mm^3 | 523 ± 108 mg | – | Nor could we detect any calcium signal | – | neither peptide (2 μg/ml) was capable of inhibiting calcium signaling | – | directly and equally well interacted with CCL5 | significantly upregulated | do not induce calcium signaling via CXCR3A | equal to the signal obtained after buffer stimulation
